Experimental findings from patent US9725441B2, “Histone demethylase inhibitors” (CELGENE QUANTICEL RESEARCH, INC., priority 2012, dated 2017) are described below.

A value given as a limit tells only on which side of the number the result lay.

In general, IC50 refers to the concentration that inhibits the measured activity by half.

JMJD2C, sequence (Q9H3R0 2-372): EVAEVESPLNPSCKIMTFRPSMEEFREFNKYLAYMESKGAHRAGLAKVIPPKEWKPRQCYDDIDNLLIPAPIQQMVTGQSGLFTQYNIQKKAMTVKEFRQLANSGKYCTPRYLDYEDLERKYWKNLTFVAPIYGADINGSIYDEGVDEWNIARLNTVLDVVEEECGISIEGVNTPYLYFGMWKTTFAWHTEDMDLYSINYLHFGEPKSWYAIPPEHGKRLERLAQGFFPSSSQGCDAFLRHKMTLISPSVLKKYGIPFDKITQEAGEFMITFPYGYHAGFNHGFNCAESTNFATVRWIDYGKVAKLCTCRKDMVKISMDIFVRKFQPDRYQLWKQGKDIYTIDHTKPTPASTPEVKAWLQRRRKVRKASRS

This experiment concerns the target JMJD2C (Homo sapiens (Human), UniProt Q9H3R0). The experiment in a line: JMJD2C in vitro enzyme inhibition assay (TR-FRET). The format is biochemical. Conditions: 0.3 nM JMJD2C, 300 nM H3K9me3-biotin peptide, 2 μM alpha-ketoglutaric acid. The text has this:
This assay determines the ability of a test compound to inhibit Jarid1A, Jarid1B, and JMJD2C demethylase activity. Baculovirus expressed Jarid1A (GenBank Accession #NM_001042603, AA1-1090) was purchased from BPS Bioscience (Cat#50110). Baculovirus expressed Jarid1B (GenBank Accession #NM_006618, AA 2-751) was purchased from BPS Bioscience (Cat #50121) or custom made by MolecularThroughput. Baculovirus-expressed JMJD2C (GenBank Accession #BC143571, AA 2-372) was purchased from BPS Bioscience (Cat#50105).
The ability of test compounds to inhibit the activity of JMJD2C was determined in 384-well plate format under the following reaction conditions: 0.3 nM JMJD2C, 300 nM H3K9me3-biotin labeled peptide (Anaspec cat #64360), 2 μM alpha-ketoglutaric acid in assay buffer of 50 mM HEPES, pH7.3, 0.005% Brij35, 0.5 mM TCEP, 0.2 mg/ml BSA, 50 μM sodium L-ascorbate, and 2 μM ammonium iron(II) sulfate. Reaction product was determined quantitatively by TR-FRET after the addition of detection reagent Phycolink Streptavidin-allophycocyanin (Prozyme) and Europium-anti-di-methylated histone H3 lysine 9 (H3K9me2) antibody (PerkinElmer) in the presence of 5 mM EDTA in LANCE detection buffer (PerkinElmer) at a final concentration of 50 nM and 1 nM, respectively.
The reaction mixture was incubated at room temperature for 30 min, and terminated by the addition of 6 μl of 5 mM EDTA in LANCE detection buffer containing 100 nM Phycolink Streptavidin-allophycocyanin and 2 nM Europium-anti-H3K9me2 antibody. Plates were read by EnVisionMultilabel Reader in TR-FRET mode (excitation at 320 nm, emission at 615 nm and 665 nm) after 1 hr incubation at rt. A ratio was calculated (665/615) for each well and fitted to determine inhibition constant (IC50).
(In general: In TR-FRET formats the signal depends on donor and acceptor labels being close together.)
With “3-{[(6-chloro-1,2,3,4-tetrahydronaphthalen-1-yl)methyl]amino}pyridine-4-carboxylic acid [Example 67]”, the IC50 is 100 to 1000 nM.

On to “3-{[(6-chloro-1-hydroxy-1,2,3,4-tetrahydronaphthalen-1-yl)methyl]amino}pyridine-4-carboxylic acid [Example 68]”, for which the IC50 lay within 100 to 1000 nM. The substance “3-{[(6-fluoro-3,4-dihydro-2H-chromen-4-yl)methyl]amino}-pyridine-4-carboxylic acid [Example 65]” yielded a 50% inhibitory concentration (IC50) of at most 100 nM.
